From patent US20250179061A1 (SIRONAX LTD., priority 2022, published 2025)
pIC50: −log10 of the molar value.

system: HT-29 cells; assay: HT-29 necroptosis cell viability assay (TNF-α/SMAC mimetic/zVAD-FMK, CellTiter-Glo); assay type: cell-based; conditions: Homo sapiens, HT-29, HT-29 necroptosis cell viability, IC50 class symbols; read-out: Activity
Procedure, shortened: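 Necroptosis was triggered by TNF-α (10 ng/ml), SMAC mimetic (6 μM) and zVAD-FMK (10 μM) in serum-free medium during 20 h compound exposure (10 concentrations, threefold steps) of HT-29 cells. IC50 from duplicate dose-responses uses CellTiter-Glo ATP luminescence as viability read-out.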

First: Cn1ncc(N)c1Oc1ccc(-n2ncn(Cc3c(F)cccc3F)c2=O)cc1 [Example 443, 2-(4-((4-amino-1-methyl-1H-pyrazol-5-yl)oxy)phenyl)-4-(2,6-difluorobenzyl)-2,4-dihydro-3H-1,2,4-triazol-3-one]
Second: Cc1nc(C(C)(C)O)sc1Oc1ccc(-n2ncn(Cc3c(F)cccc3F)c2=O)cc1 [Example 473, 4-(2,6-difluorobenzyl)-2-(4-((2-(2-hydroxypropan-2-yl)-4-methylthiazol-5-yl)oxy)phenyl)-2,4-dihydro-3H-1,2,4-triazol-3-one]
The pIC50 of the first is lower: 6.00 to 7.00 for the first, over 7.00 for the second. The second is the more potent here.

`Cc1nc(C(N)=O)sc1Oc1ccc(-n2nc3n(c2=O)[C@H](c2ccccc2)CO3)cc1F` [Example 445, (R)-5-(2-fluoro-4-(3-oxo-5-phenyl-5,6-dihydrooxazolo[2,3-c][1,2,4]triazol-2(3H)-yl)phenoxy)-4-methylthiazole-2-carboxamide] and `Cc1nc(C(C)(C)O)sc1Oc1ccc(-n2nc3n(c2=O)C(c2ccccc2)CC3)cc1F` (stereo not drawn) [Example 463, 2-(3-fluoro-4-((2-(2-hydroxypropan-2-yl)-4-methylthiazol-5-yl)oxy)phenyl)-5-phenyl-2,5,6,7-tetrahydro-3H-pyrrolo[2,1-c][1,2,4]triazol-3-one] cannot be ordered by pIC50: over 7.00 for the first, over 7.00 for the second.

`Cc1nc(C(O)C(F)F)sc1Oc1ccc(-n2ncn(Cc3c(F)cccc3F)c2=O)cc1F` (stereo not drawn) [Example 446, 2-(4-((2-(2,2-difluoro-1-hydroxyethyl)-4-methylthiazol-5-yl)oxy)-3-fluorophenyl)-4-(2,6-difluorobenzyl)-2,4-dihydro-3H-1,2,4-triazol-3-one] and `Cc1nc(C(N)C(F)F)sc1Oc1ccc(-n2ncn(Cc3c(F)cccc3F)c2=O)cc1F` (stereo not drawn) [Example 447, 2-(4-((2-(1-amino-2,2-difluoroethyl)-4-methylthiazol-5-yl)oxy)-3-fluorophenyl)-4-(2,6-difluorobenzyl)-2,4-dihydro-3H-1,2,4-triazol-3-one] cannot be ordered by pIC50: over 7.00 for the first, over 7.00 for the second.

Compared with `C[C@H]1[C@@H](O)CN1c1cc(Oc2ccc(-n3ncn(Cc4c(F)cccc4F)c3=O)cc2F)c(F)cn1` [Example 448, 4-(2,6-difluorobenzyl)-2-(3-fluoro-4-((5-fluoro-2-((2S,3S)-3-hydroxy-2-methylazetidin-1-yl)pyridin-4-yl)oxy)phenyl)-2,4-dihydro-3H-1,2,4-triazol-3-one], `CC1(C)COC(Nc2cc(Oc3ccc(-n4ncn(Cc5c(F)cccc5F)c4=O)cc3F)c(F)cn2)=N1` [Example 474, 4-(2,6-difluorobenzyl)-2-(4-((2-((4,4-dimethyl-4,5-dihydrooxazol-2-yl)amino)-5-fluoropyridin-4-yl)oxy)-3-fluorophenyl)-2,4-dihydro-3H-1,2,4-triazol-3-one] is lower in pIC50: over 7.00 for the first, 6.00 to 7.00 for the second. The first is the more potent here.

`CC(=O)c1nc(C)c(Oc2ccc(-n3ncn(Cc4c(F)cccc4F)c3=O)cc2F)s1` [Example 449, 2-(4-((2-acetyl-4-methylthiazol-5-yl)oxy)-3-fluorophenyl)-4-(2,6-difluorobenzyl)-2,4-dihydro-3H-1,2,4-triazol-3-one] and `Cc1nc(C(C)(C)O)sc1Oc1ccc(-n2ncn(Cc3c(F)cccc3F)c2=O)cc1F` [Example 462, 4-(2,6-difluorobenzyl)-2-(3-fluoro-4-((2-(2-hydroxypropan-2-yl)-4-methylthiazol-5-yl)oxy)phenyl)-2,4-dihydro-3H-1,2,4-triazol-3-one] cannot be ordered by pIC50: over 7.00 for the first, over 7.00 for the second.

`Cc1nc(N2CC(N)(C(F)F)C2)sc1Oc1ccc(-n2ncn(Cc3c(F)cccc3F)c2=O)cc1F` [Example 450, 2-(4-((2-(3-amino-3-(difluoromethyl)azetidin-1-yl)-4-methylthiazol-5-yl)oxy)-3-fluorophenyl)-4-(2,6-difluorobenzyl)-2,4-dihydro-3H-1,2,4-triazol-3-one] and `Cc1nc(N2CC(C)(N)C2)sc1Oc1ccc(-n2ncn(Cc3c(F)cccc3F)c2=O)cc1F` [Example 451, 2-(4-((2-(3-amino-3-methylazetidin-1-yl)-4-methylthiazol-5-yl)oxy)-3-fluorophenyl)-4-(2,6-difluorobenzyl)-2,4-dihydro-3H-1,2,4-triazol-3-one] cannot be ordered by pIC50: over 7.00 for the first, over 7.00 for the second.

`Cc1nc(N2CC(N)(CF)C2)sc1Oc1ccc(-n2ncn(Cc3c(F)cccc3F)c2=O)cc1F` [Example 452, 2-(4-((2-(3-amino-3-(fluoromethyl)azetidin-1-yl)-4-methylthiazol-5-yl)oxy)-3-fluorophenyl)-4-(2,6-difluorobenzyl)-2,4-dihydro-3H-1,2,4-triazol-3-one] and `Cc1nc(N2CC(N)(CF)C2)sc1Cc1ccc(-n2ncn(Cc3c(F)cccc3F)c2=O)cc1F` [Example 453, 2-(4-((2-(3-amino-3-(fluoromethyl)azetidin-1-yl)-4-methylthiazol-5-yl)methyl)-3-fluorophenyl)-4-(2,6-difluorobenzyl)-2,4-dihydro-3H-1,2,4-triazol-3-one] cannot be ordered by pIC50: over 7.00 for the first, over 7.00 for the second.

`Cc1nc(N2CCC(C)(C#N)C2)sc1Oc1ccc(-n2ncn(Cc3c(F)cccc3F)c2=O)cc1` (stereo not drawn) [Example 454, 1-(5-(4-(4-(2,6-difluorobenzyl)-5-oxo-4,5-dihydro-1H-1,2,4-triazol-1-yl)phenoxy)-4-methylthiazol-2-yl)-3-methylpyrrolidine-3-carbonitrile] and `Cc1nc(N2CC3(CCN3)C2)sc1Oc1ccc(-n2ncn(Cc3c(F)cccc3F)c2=O)cc1` [Example 455, 4-(2,6-difluorobenzyl)-2-(4-((4-methyl-2-(1,6-diazaspiro[3.3]heptan-6-yl)thiazol-5-yl)oxy)phenyl)-2,4-dihydro-3H-1,2,4-triazol-3-one] cannot be ordered by pIC50: over 7.00 for the first, over 7.00 for the second.

`Cc1nc(N2CC(OC(C)(C)C)C2)sc1Oc1ccc(-n2ncn(Cc3c(F)cccc3F)c2=O)cc1` [Example 456, 2-(4-((2-(3-(tert-butoxy)azetidin-1-yl)-4-methylthiazol-5-yl)oxy)phenyl)-4-(2,6-difluorobenzyl)-2,4-dihydro-3H-1,2,4-triazol-3-one] and `Cc1nc(N2CC3(CCO3)C2)sc1Oc1ccc(-n2ncn(Cc3c(F)cccc3F)c2=O)cc1` [Example 457, 4-(2,6-difluorobenzyl)-2-(4-((4-methyl-2-(1-oxa-6-azaspiro[3.3]heptan-6-yl)thiazol-5-yl)oxy)phenyl)-2,4-dihydro-3H-1,2,4-triazol-3-one] cannot be ordered by pIC50: over 7.00 for the first, over 7.00 for the second.

`Cc1nc(N)sc1Sc1ccc(-n2ncn(Cc3ccccc3)c2=O)cc1` [Example 458, 2-(4-((2-amino-4-methylthiazol-5-yl)thio)phenyl)-4-benzyl-2,4-dihydro-3H-1,2,4-triazol-3-one] and `Cc1nc(C(C)(C)O)sc1Oc1ccc(-n2ncn(Cc3ccccc3F)c2=O)cc1F` [Example 469, 2-(3-fluoro-4-((2-(2-hydroxypropan-2-yl)-4-methylthiazol-5-yl)oxy)phenyl)-4-(2-fluorobenzyl)-2,4-dihydro-3H-1,2,4-triazol-3-one] cannot be ordered by pIC50: over 7.00 for the first, over 7.00 for the second.

First: Cc1cccnc1Cn1cnn(-c2ccc(Oc3sc(C(C)(C)O)nc3C)c(F)c2)c1=O [Example 464, 2-(3-fluoro-4-((2-(2-hydroxypropan-2-yl)-4-methylthiazol-5-yl)oxy)phenyl)-4-((3-methylpyridin-2-yl)methyl)-2,4-dihydro-3H-1,2,4-triazol-3-one]
Second: Cc1nc(C(C)(C)O)sc1Oc1ccc(-n2ncn(Cc3ncccc3Cl)c2=O)cc1F [Example 466, 4-((3-chloropyridin-2-yl)methyl)-2-(3-fluoro-4-((2-(2-hydroxypropan-2-yl)-4-methylthiazol-5-yl)oxy)phenyl)-2,4-dihydro-3H-1,2,4-triazol-3-one]
The pIC50 of the first is lower: 6.00 to 7.00 for the first, over 7.00 for the second.

`Cc1nc(C(C)(C)O)sc1Oc1ncc(-n2ncn(Cc3c(F)cccc3F)c2=O)cc1F` [Example 465, 4-(2,6-difluorobenzyl)-2-(5-fluoro-6-((2-(2-hydroxypropan-2-yl)-4-methylthiazol-5-yl)oxy)pyridin-3-yl)-2,4-dihydro-3H-1,2,4-triazol-3-one] and `Cc1nc(C(C)(C)O)sc1Oc1ncc(-n2ncn(Cc3c(F)cccc3F)c2=O)cc1Cl` [Example 468, 2-(5-chloro-6-((2-(2-hydroxypropan-2-yl)-4-methylthiazol-5-yl)oxy)pyridin-3-yl)-4-(2,6-difluorobenzyl)-2,4-dihydro-3H-1,2,4-triazol-3-one] cannot be ordered by pIC50: over 7.00 for the first, over 7.00 for the second.

Compared with `Cc1nc(C(C)(C)O)sc1Oc1ccc(-n2ncn(Cc3cnccc3Cl)c2=O)cc1F` [Example 467, 4-((4-chloropyridin-3-yl)methyl)-2-(3-fluoro-4-((2-(2-hydroxypropan-2-yl)-4-methylthiazol-5-yl)oxy)phenyl)-2,4-dihydro-3H-1,2,4-triazol-3-one], `Cc1nc(C(C)(C)O)sc1Oc1ccc(-n2ncn(Cc3cc(Cl)ccn3)c2=O)cc1F` [Example 471, 4-((4-chloropyridin-2-yl)methyl)-2-(3-fluoro-4-((2-(2-hydroxypropan-2-yl)-4-methylthiazol-5-yl)oxy)phenyl)-2,4-dihydro-3H-1,2,4-triazol-3-one] is lower in pIC50: 6.00 to 7.00 for the first, 5.00 to 6.00 for the second.

First: Cc1nc(C(C)(C)O)sc1Oc1ccc(-n2ncn(Cc3cc(F)ccc3F)c2=O)cc1F [Example 470, 4-(2,5-difluorobenzyl)-2-(3-fluoro-4-((2-(2-hydroxypropan-2-yl)-4-methylthiazol-5-yl)oxy)phenyl)-2,4-dihydro-3H-1,2,4-triazol-3-one]
Second: Cc1c(C(C)(C)O)noc1Oc1ccc(-n2ncn(Cc3c(F)cccc3F)c2=O)cc1F [Example 472, 4-(2,6-difluorobenzyl)-2-(3-fluoro-4-((3-(2-hydroxypropan-2-yl)-4-methylisoxazol-5-yl)oxy)phenyl)-2,4-dihydro-3H-1,2,4-triazol-3-one]
The pIC50 of the first is higher: over 7.00 for the first, 6.00 to 7.00 for the second. The first is the more potent here.

`Cc1c(C#N)noc1Oc1ccc(-n2ncn(Cc3c(F)cccc3F)c2=O)cc1F` [Example 475, 5-(4-(4-(2,6-difluorobenzyl)-5-oxo-4,5-dihydro-1H-1,2,4-triazol-1-yl)-2-fluorophenoxy)-4-methylisoxazole-3-carbonitrile] and `Cc1c(C(N)=O)noc1Oc1ccc(-n2ncn(Cc3c(F)cccc3F)c2=O)cc1F` [Example 476, 5-(4-(4-(2,6-difluorobenzyl)-5-oxo-4,5-dihydro-1H-1,2,4-triazol-1-yl)-2-fluorophenoxy)-4-methylisoxazole-3-carboxamide] cannot be ordered by pIC50: over 7.00 for the first, over 7.00 for the second.
